In publication PMC11521309, “A novel 4-aminoquinoline chemotype with multistage antimalarial activity and lack of cross-resistance with PfCRT and PfMDR1 mutants” (PLOS Pathogens, 2024):
Values joined by “and” are separate entries in the source; they are usually repeats but may differ in a detail not shown here. Equal values may be shown once. Read-outs that look alike come from different tables or passages of the source.

Experiments:
P. falciparum 7G8^F145I [1] = tested on: P. falciparum 7G8^F145I; parameters: key to Phenotype, 7G8^F145I: S: sensitive; R: resistant; conditions: cited from earlier work
P. falciparum FCB^KD1 = tested on: P. falciparum FCB^KD1; parameters: method as in ref 2 Sidhu et al. 2006; conditions: means ± SEM, N 4; ref 2 Sidhu et al. 2006; read-out: IC50 FCBKD1; cited from earlier work
P. falciparum Dd2^I218F [2] = tested on: P. falciparum Dd2^I218F; parameters: key to Phenotype, Dd2^I218F: S: sensitive; R: resistant; conditions: cited from earlier work
P. falciparum NF10^YF = tested on: P. falciparum NF10^YF; parameters: method as in ref 1 Veiga et al. 2016; conditions: means ± SEM, N 6; ref 1 Veiga et al. 2016; read-out: IC50 NF10YF; cited from earlier work
P. falciparum Dd2^H97Y [3] = tested on: P. falciparum Dd2^H97Y; parameters: key: S: sensitive; R: resistant; conditions: ref [19],[20],[51]; cited from earlier work
COS-7 cells = assay: MTT cytotoxicity assay, 72 h; format: cell-based, monkey
Procedure: (§1) Human hepatoma (HepG2) and fibroblast-like monkey kidney cells (COS-7) were cultured in Dulbecco’s Modified Eagle Medium supplemented with 10% heat-inactivated fetal bovine serum and gentamycin (40 mg/L) at 37°C in a 5% CO2 atmosphere. Cytotoxicity of test compounds was measured by metabolic reduction of mitochondrial enzymes using the MTT assay (3-[4,5-dimethyl-thiazol-2-yl]-2,5-diphenyltetrazolium chloride). Cells were seeded at 10^5 cells/well in 96-well plates and incubated for 72 hours in the presence of a 2-fold 12-point serial dilution of drugs along with drug-free controls. After adding 15 μL of MTT (5 mg/mL) to the wells, plates were centrifuged at 317g for 5 minutes and the pellet was resuspended in isopropanol. Absorbance was measured at 570 nm (CLARIOStar, Labtech BMG). Cell viability was determined by formazan production, and was expressed as a percentage of untreated control wells.

[4] = MTT cytotoxicity assay, 72 h; format: cell-based, monkey; conditions: monkey, COS-7 cells; MTT, 72 h, N = 3
Procedure: as §1

P. falciparum Dd2^H97Y [5] = assay: ABS susceptibility, pfcrt-edited line; format: cell-based; conditions: Plasmodium falciparum
Procedure: (§2) P. falciparum ABS parasites were cultured at 3% hematocrit in human O^+ RBCs in RPMI-1640 media supplemented with 25 mM HEPES, 50 mg/L hypoxanthine, 2 mM L-glutamine, 0.21% sodium bicarbonate, 0.5% (w/v) AlbuMAXII (Invitrogen) and 10 μg/mL gentamycin. Culture flasks were kept in modular incubator chambers (Billups-Rothenberg) in a 5% O2, 5% CO2, and 90% N2 atmosphere at 37°C. Synchronized ring-stage parasites were obtained by two consecutive rounds of treatment with 5% D-sorbitol in 48-hour intervals. […] This was done by exposing cultures at 1% hematocrit and 0.3% parasitemia in 96-well plates in the presence of drugs in a two-fold 10 or 12-point serial dilution in duplicate along with drug-free controls. After a 72-hour incubation, parasite survival was assessed by flow cytometry on an iQue flow cytometer (Sartorius) using SYBR Green and MitoTracker Deep Red FM (Life Technologies) as nuclear stain and vital dye, respectively. Parasite survival was determined as a percentage relative to drug-free control. IC50 values were interpolated from log concentration versus response curves in Prism 9 (GraphPad Prism Software Inc.).

P. falciparum Dd2^T93S = assay: ABS susceptibility, pfcrt-edited line; format: cell-based; conditions: Plasmodium falciparum
Procedure: as §2

P. falciparum Dd2^G353V = assay: ABS susceptibility, pfcrt-edited line; format: cell-based; conditions: Plasmodium falciparum
Procedure: as §2

P. falciparum Dd2^M343L = assay: ABS susceptibility, pfcrt-edited line; format: cell-based; conditions: Plasmodium falciparum
Procedure: as §2

P. falciparum 7G8^F145I [6] = assay: ABS susceptibility, pfcrt-edited line; format: cell-based; conditions: Plasmodium falciparum
Procedure: as §2

P. falciparum Dd2^F145I = assay: ABS susceptibility, pfcrt-edited line; format: cell-based; conditions: Plasmodium falciparum
Procedure: as §2

P. falciparum 7G8^C350R = assay: ABS susceptibility, pfcrt-edited line; format: cell-based; conditions: Plasmodium falciparum
Procedure: as §2

P. falciparum Dd2^3D7 = assay: ABS susceptibility, pfcrt-edited line; format: cell-based; conditions: Plasmodium falciparum
Procedure: as §2

P. falciparum 7G8^7G8 = assay: ABS susceptibility, pfcrt-edited line; format: cell-based; conditions: Plasmodium falciparum
Procedure: as §2

P. falciparum Dd2^I218F [7] = assay: ABS susceptibility, pfcrt-edited line; format: cell-based; conditions: Plasmodium falciparum
Procedure: as §2

P. falciparum Dd2^Dd2 = assay: ABS susceptibility, pfcrt-edited line; format: cell-based; conditions: Plasmodium falciparum
Procedure: as §2

[8] = tested on: P. falciparum NF54-Pfs16-GFP-Luc stage IV-V gametocytes; assay: Mature gametocyte (stages IV-V) viability, luciferase, 48 h; format: cell-based, Plasmodium falciparum; conditions: 5 μM
Procedure: P. falciparum NF54-Pfs16-GFP-Luc (MRA-1217), a highly gametocyte-producing strain, was cultured following standard procedures. NF54-Luc ABS parasites were sorbitol-synchronized as previously described and cultured to reach 8–10% parasitemia as mature trophozoites prior to starting gametogenesis induction via nutrient deficit stress. Briefly, stress was induced by replacing only 40% of the culture medium and returning cultures to a 37°C incubation. Cultures were treated with 50 mM N-acetylglucosamine for 10 days to remove ABS parasites. Mature gametocytes (stages IV-V) were isolated using magnetic columns and incubated at 2% gametocytemia and 1.5% hematocrit in 96-well plates containing the test compounds for 48 hours at 37°C, following standard P. falciparum culturing conditions. Methylene blue was used as a gametocytocidal control alongside drug-free wells. Luciferase activity was assessed by adding 40 μL of luciferin substrate (Promega) to 40 μL of parasite lysates and detecting bioluminescence at an integration constant of 10s with the BioTek Cytation 5 Cell Imaging Multimode Reader.

[9] = Dd2I218F, mean ± SEM, ref 2 (Dhingra et al., 2019)

For CCN(CC)CCCC(C)Nc1ccnc2cc(Cl)ccc12 (stereo not shown) [CQ, chloroquine], the IC50 (P. falciparum 7G8^F145I [1]; 7G8F145I, mean ± SEM, ref 3 (Kim et al., 2019)) is listed as 7.3 ± 0.4 nM, the “Phenotype, 7G8^F145I” value (P. falciparum 7G8^F145I [1]; ref [19],[20],[51]) is listed as “S” and the IC50 (P. falciparum FCB^KD1) is listed as 242 ± 43.9 nM. The IC50 (P. falciparum Dd2^I218F [2]; [9]) was 36.7 ± 4.3 nM, the IC90 (P. falciparum Dd2^I218F [2]; [9]) was 85.3 ± 4.9 nM and the “Phenotype, Dd2^I218F” value (P. falciparum Dd2^I218F [2]; ref [19],[20],[51]) was “S”. For the same compound, the IC50 (P. falciparum NF10^YF) was 347 ± 24.4 nM and the “Phenotype, Dd2^H97Y” value (P. falciparum Dd2^H97Y [3]) was “R”.
In the case of COc1cc2nccc(Nc3cccc(Oc4ccccc4)c3)c2cc1OC [LDT-623], the “SI (CC50 COS-7 / IC50 3D7)” value (COS-7 cells) is reported as 3.8, the CC50 at 72 h [4] is reported as 500 ± 100 nM and the IC50 (P. falciparum Dd2^H97Y [5]) is reported as 416 ± 59.6 nM. It also gave an IC90 (P. falciparum Dd2^H97Y [5]) of 5270 ± 99.2 nM, an IC50 (P. falciparum Dd2^T93S) of 227 ± 9 nM and an IC90 (P. falciparum Dd2^T93S) of 429 ± 41.7 nM. It also gave an IC50 (P. falciparum Dd2^G353V) of 456 ± 9.6 nM, an IC90 (P. falciparum Dd2^G353V) of 6510 ± 1540 nM and an IC50 (P. falciparum Dd2^M343L) of 416 ± 50 nM. For the same compound, the IC90 (P. falciparum Dd2^M343L) was 6860 ± 333 nM, the IC50 (P. falciparum 7G8^F145I [6]) was 439 ± 22.7 nM and the IC90 (P. falciparum 7G8^F145I [6]) was 6570 ± 3250 nM. It also gave an IC50 (P. falciparum Dd2^F145I) of 541 ± 83.7 nM, an IC90 (P. falciparum Dd2^F145I) of 3790 ± 1730 nM and an IC50 (P. falciparum 7G8^C350R) of 576 ± 49.4 nM. For the same compound, the IC90 (P. falciparum 7G8^C350R) was 4050 ± 3080 nM, the IC50 (P. falciparum Dd2^3D7) was 232 ± 10.5 nM and the IC90 (P. falciparum Dd2^3D7) was 455 ± 51.1 nM. It also gave an IC50 (P. falciparum 7G8^7G8) of 579 ± 67.5 nM, an IC90 (P. falciparum 7G8^7G8) of 980 ± 133 nM and an IC50 (P. falciparum Dd2^I218F [7]) of 435 ± 20.1 nM. The IC90 (P. falciparum Dd2^I218F [7]) was 3980 ± 1680 nM, the IC50 (P. falciparum Dd2^Dd2) was 452 ± 31 nM and the IC90 (P. falciparum Dd2^Dd2) was 6340 ± 1660 nM. The “% Inhibition of viability, mature gametocytes” value ([8]; mean, N = 3) was 62% and 61.67% and the “% Inhibition of viability, mature gametocytes” value ([8]; single replicates) was 78.00% and 67.00% and 40.00%.
